Measurements published in patent US20210228523A1, “MODULATORS OF SESTRIN-GATOR2 INTERACTION AND USES THEREOF” (Navitor Pharmaceuticals, Inc., priority 2017, published 2021).

Columns and labels:
mTORC1 [1] = experiment: Western blot of pS6 in multiple regions of the rat brain; assay type: in vivo; settings: Example C; NV-5138 160 mg/kg oral; 1 hr post-dose; ad libitum access to food
Procedure: Study Design: Ten (10) male rats weighing between 175 and 200 g were randomized into 2 study groups (n=5/group), following a 5-day acclimation period. Group 1 received a single administration of Veh by oral gavage and group 2 received a single administration of NV-5138 (160 mg/kg prepared in Veh) by oral gavage. One hour following administration, rats were sacrificed by conscious decapitation, plasma was collected for analysis of NV-5138 exposure in addition to the isolation of the PFC, hippocampus, striatum, neocortex and cerebellum by microdissection. Total protein extracts were prepared from the harvested tissues and submitted to WB analysis followed by quantitative analysis of selected mTORC1 substrates.
Formulation of NV-5138 (160 mg/ml): NV-5138 (Navitor, Lot #09) was prepared by dissolving in Veh at a concentration of 160 mg/mL. […]
Western Blot Analysis: Synaptosomes preparations (15 μg of total protein) were loaded and separated on NuPAGE 4-12% Bis-Tris gels and transferred to PVDF membrane (Immobilon-FL PVDF membrane, Millipore) using CAPS Buffer (10 mM 3-(Cyclohexylamino)-1-propanesulfonic acid, 12.5% Ethanol pH=10). […] Signals were quantified using the Odyssey Infrared Imaging System (LI-COR Bioscience). The resulting densitometric readings were used to generate a ratio of phopho-protein to α-tubulin. […]

mTORC1 [2] = experiment: Western blot of pS6 in rat brain and selected peripheral organs; assay type: in vivo; settings: Example D; NV-5138 160 mg/kg oral; 1 hr post-dose
Procedure: Study Design: Thirty (30) male rats weighing between 175 and 200 g were randomized into 3 study groups (n=10), following a 5-day acclimation period. One hour following dosing rats were sacrificed by conscious decapitation, plasma, brain and selected peripheral tissues were harvested for compound level and WB analysis. Tissues were prepared for WB to quantitate the mTORC1 substrate pS6 as a measure of mTORC1 activity.
The dosing volume based on the weight of the animal (10 mL/kg) was administered by oral gavage. Test articles were prepared the day of dosing.
Tissues Preparations: One hour following dosing rats were sacrificed by conscious decapitation, plasma, brain and peripheral tissues were harvested and immediately frozen in liquid nitrogen. Tissues were thawed and homogenized for 1 min twice using MP homogenizer in Lysis Buffer (Cell lysis buffer: 1% Triton X-100, 50 mM HEPES pH 7.4, 100 mM NaCl, 2 mM EDTA, 10 mM Beta-glycerophosphate, 10 mM Sodium pyrophosphate, and 1 protease inhibitor tab per 50 mL fresh) at 4° C. Lysates were then sonicated on ice for 20 s at 50% amplitude. The protein concentration was determined by Bradford assay and all samples were mixed with loading buffer (50 mM Tris-HCl pH 6.8, 2% SDS, 5% glycerol, 5% β-mercaptoethanol and 0.01% Bromophenol blue) and stored at −20° C. until WB analysis.
Western Blot (WB) Analysis. Equal amounts of each sample (15 μg of total protein) were loaded and separated on NuPAGE 4-12% Bis-Tris gels and transferred to PVDF membrane (Immobilon-FL PVDF membrane, Millipore) using CAPS Buffer (10 mM 3-(Cyclohexylamino)-1-propanesulfonic acid, 12.5% Ethanol pH=10). After transfer, membranes were incubated for 1 hr at room temperature in Odyssey blocking buffer (Licor). After blocking, membranes were incubated at 4° C. overnight with primary antibodies. Primary antibodies used were rabbit anti-[…] (cell signaling; #5364) at 1:1000, mouse anti-GAPDH (Sigma; #G8795) at 1:1000 and mouse anti-a-tubulin (Sigma; #T5168) at 1:10000 in Odyssey blocking buffer. The next day, membranes were washed three times in 1×TBS-Tween (25 mM Tris, pH 7.4, 3.0 mM KCl, 140 mM NaCl and 0.05% Tween-20) and incubated with dye-coupled secondary antibodies (goat anti-mouse IRdye680, and goat anti-rabbit IRdye800 from LI-COR) at 1:20000 in Odyssey blocking buffer for 30 min then wash three times in IX TBS-Tween. Signals were quantified using the Odyssey Infrared Imaging System (LI-COR Bioscience). The resulting densitometric readings were used to generate a ratio of phopho-protein to a-tubulin or GAPDH. The resulting ratio was further normalized to vehicle treated control group.

## CC(C)(C[C@H](N)C(=O)O)C(F)F [NV-5138]
mTORC1 [1]
  activation of mTORC1 (pS6) in PFC, striatum, hippocampus, neocortex and cerebellum: significant activation of mTORC1 in most, but not all of the major regions of the brain
mTORC1 [2]
  level of pS6 in rat epididymal fat: significantly increased
  level of pS6 in rat heart: significantly increased
  level of pS6 in rat kidney: significantly increased
  level of pS6 in rat tibialis anterior: significantly increased
  pS6 levels in liver: not the liver
  pS6 levels in rat brain: significant activation of mTORC1
  pS6 levels in testes: significant activation
